In patent US9051345B2, “Metalloinsertor complexes targeted to DNA mismatches” (CALIFORNIA INSTITUTE OF TECHNOLOGY, priority 2011, dated 2015):
Peptide text beside a SMILES is read from it. * marks the point of attachment. Cbz = O=C(OCc1ccccc1)*; CH2F = FC*

Experiments:
HCT116O cells [1] = details: HCT116N and HCT116O; called known; cited from earlier work
HCT116O cells [2] = test: MTT cytotoxicity assay; format: cell-based, human; details: for effect of PARP inhibitor on the selective MMR-dependent effects of the rhodium compound: with 20 μM [Rh(HDPA)2chrysi]^3+, HCT116N versus HCT116O
Procedure: Cytotoxicity assays were performed as described in Mosmann, 1983, J. Immunol. Methods, 65, 55-63, the entire contents of which is incorporated herein by reference. HCT116N and HCT116O cells were plated in 96-well plates at 50,000 cells/well and incubated with rhodium for the durations specified. After incubation with the indicated rhodium complexes, cells were labeled with MTT for 4 hours at 37° C. under 5% CO2 and humidified atmosphere. The resulting formazan crystals were dissolved with solubilizing reagent purchased from Roche according to the manufacturer's instructions. The dissolved formazan was quantified as the absorbance at 570 nm minus the background absorbance at 690 nm. Percent viability was determined as the ratio of the amount of formazan in the treated cells to that of the untreated cells.
In order to elucidate the mechanism of action for the cytotoxicity caused by a metalloinsertor complex of Formula I, the MTT cytotoxicity assay was repeated in the absence and presence of the pan-caspase inhibitor Z-VAD-FMK. This inhibitor works by irreversibly binding to the active site of caspases which participate in the apoptotic pathway. […] The HCT116N and HCT116O cell lines were treated with 0-30 μM of the [Rh(HDPA)2chrysi]^3+ complex for 24-72 hours. […]
In order to determine the mechanism of action for cytotoxicity caused by a metalloinsertor complex of Formula I, the MTT cytotoxicity assay was repeated in conjunction with a panel of poly-ADP ribose polymerase (PARP) inhibitors: DPQ, 3-AB, 4-AN, and ABT-888, as described in Costantino et al., 2001, J. Med. Chem., 44, 3786-3794; Purnell et al., 1980, Biochem. J. 185, 775-777; Banasik et al., 1992, J. Biol. Chem. 267, 1569-1575; and Donawho et al., 2007, Clin. Cancer Res., 13, 2728-2737, the entire contents of all of which are incorporated herein by reference. The HCT116N and HCT116O cell lines were treated with 0 or 20 μM of the [Rh(HDPA)2chrysi]^3+ complex for 72 hours, with or without one of the four inhibitors. The inhibitor 3,4-Dihydro-5[4-(1-piperindinyl)butoxy]-1(2H)-isoquinoline (DPQ) was added to a final concentration of 0, 25, or 50 μM; the inhibitor 3-aminobenzamide (3-AB) was added to a final concentration of 0, 2, or 3 mM; the inhibitor 4-amino-1,8-napthalimide (4-AN) was added to a final concentration of 0, 10, or 20 μM; and the inhibitor 2-((R)-2-Methylpyrrolidin-2-yl)-1H-benzimidazole-4-carboxamide (ABT-888) was added to a final concentration of 0, 5, or 10 μM. […] For example, in the case of the compound DPQ, this difference was 43±2.7% without inhibitor and 0.6±3.0% with inhibitor.

HCT116O cells [3] = test: ICP-MS assay, nuclear and mitochondrial rhodium accumulation; format: cell-based, human; details: 10 uM, 24 h, comparison in words
Procedure: To assay the subcellular localization of the rhodium complexes, an inductively coupled plasma mass spectrometry (ICP-MS) assay was used to quantify the uptake of the complexes in both whole cell extracts and nuclear and mitochondrial fractions.
Mitochondrial Rhodium Accumulation. With reference to FIG. 31B, HCT116O cells were plated in 75 cm^2 culture flasks at 2.0×10^7 cells/plate and incubated at 37° C., 5% CO2 for 24 h. Rhodium was added to 10 uM and cells were grown for an additional 24 h. The cells were then harvested by trypsinization and centrifuged for 5 min at 1,200 rpm. The supernatants were decanted, and the cell pellets were resuspended in 1 ml cold PBS (pH 7.2). The cells were centrifuged again for 5 min at 1,200 rpm. The supernatants were discarded, and the resultant pellets were resuspended in 0.5 ml mitochondrial extraction buffer (200 mM mannitol, 68 mM sucrose, 50 mM Pipes, 50 mM KCl, 5 mM EGTA, 2 mM MgCl2; 1 mM DTT and protease inhibitors were added right before use). The samples were incubated on ice for 20 min, and the suspensions were homogenized via passage through a needle and syringe (35×). The homogenized cells were then centrifuged for 5 min at 750 rpm. The supernatants were collected and spun again at 14,000 g for 10 min. The supernatants were decanted, and the resulting mitochondrial pellet was suspended in 0.8 ml H2O via probe sonication. […]

Molecule | effect of PARP inhibitor on the selective MMR-dependent effects of the rhodium compound (HCT116O cells [2]; MTT, 72 hours) | selective cytotoxicity, MMR-deficient HCT116O versus MMR-proficient HCT116N cells (HCT116O cells [2]) | further results
[Rh(bpy)2chrysi]^3+ |  |  | cytotoxicity (known property) (HCT116O cells [1]): non-toxic
Nc1ccc2c3c(cccc13)C(=O)NC2=O [4-AN, 4-amino-1,8-napthalimide, reference compound] | completely abolished the selective MMR-dependent effects |  | 
[Rh(MeDPA)2chrysi]Cl3 [[Rh(MeDPA)2chrysi]^3+] |  | differential toxicity against the HCT116O cell line comparable to that of [Rh(HDPA)2chrysi]^3+ | toxicity in MMR-deficient HCT116O versus HCT116N cells at 48 hours (HCT116O cells [2]; MTT, 48 hours): enhance toxicity in the MMR-deficient HCT116O cells
C[C@]1(c2nc3c(C(N)=O)cccc3[nH]2)CCCN1 [ABT-888, 2-((R)-2-Methylpyrrolidin-2-yl)-1H-benzimidazole-4-carboxamide, reference compound] | completely abolished the selective MMR-dependent effects |  | 
[Rh(chrysi)(phen)(PyPrO)]^2+ |  | selective cytotoxicities towards the MMR-deficient HCT116O cells | 
[Rh(PrDPA)2chrysi]^3+ |  |  | selectivity of inhibitory effects after 72 hours (HCT116O cells [2]; MTT, HCT116N and HCT116O, 72 hours): non-selective inhibitory effects; mitochondrial rhodium content (HCT116O cells [3]): greater than that of cells incubated with [Rh(DPAE)2(chrysi)]^3+
[Rh(chrysi)(phen)(PPE)]^2+ |  | selective cytotoxicities towards the MMR-deficient HCT116O cells | 
[Rh(NH3)4phzi]Cl3 [[Rh(NH3)4phzi]^3+] |  | selective cytotoxicities towards the MMR-deficient HCT116O cells | 
COC(=O)C[C@H](NC(=O)[C@H](C)NC(=O)[C@@H](NC(=O)OCc1ccccc1)C(C)C)C(=O)CF [Z-VAD-FMK, reference compound] (Cbz-Val-Ala-Asp(OMe)-CH2F) |  |  | protection from rhodium by the caspase inhibitor at 20 M (so in the source) (HCT116O cells [2]; MTT, HCT116N and HCT116O, with [Rh(HDPA)2chrysi]^3+): no protection from rhodium; protection from rhodium by the caspase inhibitor at 40 μM (HCT116O cells [2]; MTT, HCT116O, with [Rh(HDPA)2chrysi]^3+): some protection from rhodium
NC(=O)c1cccc(N)c1 [3-AB, 3-aminobenzamide, reference compound] | completely abolished the selective MMR-dependent effects |  | 
[Rh(DPAE)2chrysi]^3+ |  | increased cytotoxicity to the MMR-deficient HCT116O cells | incubation time at which cell selective activity is exhibited (HCT116O cells [2]; HCT116O versus HCT116N): ≤ 6 h; share of cellular rhodium complex that is nuclear (HCT116O cells [3]): greater percentage
[Rh(chrysi)(phen)(DPE)]Cl3 [[Rh(chrysi)(phen)(DPE)]^2+] |  | selective cytotoxicities towards the MMR-deficient HCT116O cells | 
O=C1NCCc2c(OCCCCN3CCCCC3)cccc21 [DPQ, 3,4-Dihydro-5[4-(1-piperindinyl)butoxy]-1(2H)-isoquinoline, reference compound] | completely abolished the selective MMR-dependent effects |  | 
